Data on 17 compounds can be found in ChEMBL document CHEMBL6083286, “Discovery of ERD-12310A as an Exceptionally Potent and Orally Efficacious PROTAC Degrader of Estrogen Receptor α (ERα)” (J Med Chem, 2024).

For test [1], the target named is T1, Protein cereblon/Estrogen receptor (Homo sapiens, UniProt P03372+Q96SW2). The test can be described thus: PROTAC activity at CRBN/ERalpha in human MCF7 cells assessed as reduction in ERalpha protein level measured after 12 hrs by Western blot analysis. The test is classed as cell-based. A general note: Immunoblotting shows a protein as a band on a membrane.
Target sequence in this assay (P03372 whole entry): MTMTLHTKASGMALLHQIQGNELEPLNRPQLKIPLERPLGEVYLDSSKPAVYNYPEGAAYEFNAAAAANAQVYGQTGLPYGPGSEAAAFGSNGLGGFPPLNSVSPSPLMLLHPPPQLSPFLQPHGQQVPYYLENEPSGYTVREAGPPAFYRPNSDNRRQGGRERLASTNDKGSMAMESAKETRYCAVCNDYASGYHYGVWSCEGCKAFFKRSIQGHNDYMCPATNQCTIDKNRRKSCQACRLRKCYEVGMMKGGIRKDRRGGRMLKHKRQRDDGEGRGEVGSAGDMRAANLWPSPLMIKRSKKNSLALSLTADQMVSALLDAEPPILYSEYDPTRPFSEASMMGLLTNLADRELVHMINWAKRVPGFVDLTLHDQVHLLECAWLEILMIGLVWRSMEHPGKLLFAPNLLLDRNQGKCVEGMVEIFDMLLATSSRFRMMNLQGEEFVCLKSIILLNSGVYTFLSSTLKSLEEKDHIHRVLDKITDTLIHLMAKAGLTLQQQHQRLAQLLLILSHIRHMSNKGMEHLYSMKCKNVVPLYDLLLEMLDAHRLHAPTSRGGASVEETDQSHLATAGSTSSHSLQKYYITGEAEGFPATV
Target sequence in this assay (Q96SW2 whole entry): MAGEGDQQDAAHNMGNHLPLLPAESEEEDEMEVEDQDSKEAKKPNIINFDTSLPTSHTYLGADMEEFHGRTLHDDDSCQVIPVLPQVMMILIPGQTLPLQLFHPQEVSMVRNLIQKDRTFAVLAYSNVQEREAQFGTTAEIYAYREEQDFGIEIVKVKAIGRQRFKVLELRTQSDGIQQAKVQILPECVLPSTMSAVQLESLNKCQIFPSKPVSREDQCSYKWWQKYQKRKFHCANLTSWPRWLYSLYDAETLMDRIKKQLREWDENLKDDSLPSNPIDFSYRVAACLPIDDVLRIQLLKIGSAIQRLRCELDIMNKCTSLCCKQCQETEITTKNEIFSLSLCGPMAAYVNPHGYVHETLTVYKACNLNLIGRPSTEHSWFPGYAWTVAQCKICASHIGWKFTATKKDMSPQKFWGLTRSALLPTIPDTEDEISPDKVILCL
Test [2] deals with T1, Protein cereblon/Estrogen receptor. The test can be described thus: PROTAC activity at CRBN/ERalpha in human MCF7 cells assessed as reduction in ERalpha protein level measured after 12 hrs by Western blot analysis relative to control. The test is classed as cell-based.
Target sequence in this assay (P03372 whole entry, looked up): as the sequence (P03372 whole entry) above
Target sequence in this assay (Q96SW2 whole entry, looked up): as the sequence (Q96SW2 whole entry) above

Each structure is given as a SMILES string.

By Emax is commonly meant the greatest response seen or fitted, relative to the assay's reference. Take `O=C1CC[C@H](N2Cc3c(ccc4c3OCC43CCN(C(=O)CN4CCCC5(CCN(c6ccc([C@@H]7c8ccc(O)cc8CC[C@@H]7c7ccccc7)cc6)CC5)C4)CC3)C2=O)C(=O)N1`: in test [1], the DC50 worked out at 0.202 nM. In addition, in test [2], the Emax worked out at 95%.
The matching figures for `O=C1CC[C@H](N2Cc3c(ccc4c3OCC43CCN(C(=O)CCC4CCN(c5ccc([C@@H]6c7ccc(O)cc7CC[C@@H]6c6ccccc6)cc5)CC4)CC3)C2=O)C(=O)N1`: 0.116 nM and 89%.
In the case of `O=C1CC[C@H](N2Cc3c(ccc4c3OCC43CCN(C(=O)CN4CC5(CCN(c6ccc([C@@H]7c8ccc(O)cc8CC[C@@H]7c7ccccc7)cc6)CC5)C4)CC3)C2=O)C(=O)N1`, the DC50 in test [1] was 0.018 nM. The Emax in test [2] turned out to be 106%.
On to `O=C1CC[C@H](N2Cc3c(ccc4c3OCC43CCN(CC4CCC5(CC4)CN(c4ccc([C@@H]6c7ccc(O)cc7CC[C@@H]6c6ccccc6)cc4)C5)CC3)C2=O)C(=O)N1`, for which the DC50 in test [1] turned out to be 0.11 nM. Further, in test [2], the maximum response (Emax) turned out to be 95%.
On the same counts, the results for `O=C1CC[C@H](N2Cc3c(ccc4c3OCC43CCN(C(=O)C4CCN(c5ccc([C@@H]6c7ccc(O)cc7CC[C@@H]6c6ccccc6)cc5)CC4)CC3)C2=O)C(=O)N1` are 0.028 nM and 82%.
The matching figures for `O=C1CC[C@H](N2Cc3c(ccc4c3OCC43CCN(CC4CCC5(CC4)CCN(c4ccc([C@@H]6c7ccc(O)cc7CC[C@@H]6c6ccccc6)cc4)CC5)CC3)C2=O)C(=O)N1`: 0.337 nM and 99%.
The matching figures for `O=C1CC[C@H](N2Cc3c(ccc4c3OCC43CCN(CC(=O)N4CCC5(CCN(c6ccc([C@@H]7c8ccc(O)cc8CC[C@@H]7c7ccccc7)cc6)CC5)C4)CC3)C2=O)C(=O)N1`: 0.0419 nM and 100%.
In the case of `O=C1CC[C@H](N2Cc3c(ccc4c3OCC43CCN(CC4CC5(CCN(c6ccc([C@@H]7c8ccc(O)cc8CC[C@@H]7c7ccccc7)cc6)CC5)CO4)CC3)C2=O)C(=O)N1` (some centres not stated), in test [1], the DC50 was determined as 0.303 nM. For the same compound, in test [2], the maximal response (Emax) is 94%.
The matching figures for `O=C1CC[C@H](N2Cc3c(ccc4c3OCC43CCN(C(=O)CCCC4CCN(c5ccc([C@@H]6c7ccc(O)cc7CC[C@@H]6c6ccccc6)cc5)CC4)CC3)C2=O)C(=O)N1`: 0.079 nM and 95%.
The matching figures for `O=C1CC[C@H](N2Cc3c(ccc4c3OCC43CCN(C(=O)CN4CCC5(CC4)CCN(c4ccc([C@@H]6c7ccc(O)cc7CC[C@@H]6c6ccccc6)cc4)CC5)CC3)C2=O)C(=O)N1`: 0.035 nM and 103%.
The matching figures for `O=C1CC[C@H](N2Cc3c(ccc4c3OCC43CCN(CCC4CCN(c5ccc([C@@H]6c7ccc(O)cc7CC[C@@H]6c6ccccc6)cc5)CC4)CC3)C2=O)C(=O)N1`: 0.0043 nM and 80%.
`O=C1CC[C@H](N2Cc3c(ccc4c3OCC43CCN(CC4COC5(CCN(c6ccc([C@@H]7c8ccc(O)cc8CC[C@@H]7c7ccccc7)cc6)CC5)OC4)CC3)C2=O)C(=O)N1`: the DC50 in test [1] amounted to 0.167 nM. In test [2], the Emax worked out at 100%.
With `O=C1CC[C@H](N2Cc3c(ccc4c3OCC43CCN(CC4CC5(CCN(c6ccc([C@@H]7c8ccc(O)cc8CC[C@@H]7c7ccccc7)cc6)CC5)C4)CC3)C2=O)C(=O)N1`, in test [1], the DC50 was 0.147 nM. In test [2], the Emax was 87%.
Turning to `O=C1CC[C@H](N2Cc3c(ccc4c3OCC43CCN(CC4CCN(c5ccc([C@@H]6c7ccc(O)cc7CC[C@@H]6c6ccccc6)cc5)CC4)CC3)C2=O)C(=O)N1`, the Emax in test [2] amounted to 37%.
With `O=C1CC[C@H](N2Cc3c(ccc4c3OCC43CCN(CC4CC5(C4)CN(c4ccc([C@@H]6c7ccc(O)cc7CC[C@@H]6c6ccccc6)cc4)C5)CC3)C2=O)C(=O)N1`, the DC50 in test [1] was determined as 0.156 nM. Also, the Emax in test [2] is 81%.
Regarding `O=C1CC[C@H](N2Cc3c(ccc4c3OCC43CCN(C[C@H]4CCC5(CCN(c6ccc([C@@H]7c8ccc(O)cc8CC[C@@H]7c7ccccc7)cc6)CC5)OC4)CC3)C2=O)C(=O)N1`, the DC50 in test [1] stood at 0.142 nM. In addition, in test [2], the maximum response (Emax) was 100%.
Turning to `C[C@]12CC[C@@H]3c4ccc(O)cc4C[C@@H](CCCCCCCCC[S+]([O-])CCCC(F)(F)C(F)(F)F)[C@H]3[C@@H]1CC[C@@H]2O` (some centres not stated), in test [2], the Emax is 100%.
